Usually IC50 stands for the concentration that inhibits the measured activity by half. Low values mean greater potency, high ones weaker potency.

Our source for the IC50 values is PMC5542402 (Combinatorial chemistry & high throughput screening, 2016).

Like-named read-outs stand apart in the source and are kept apart here.

The target of assay [1] is T1, PhoP (Mycobacterium tuberculosis, UniProt P71814, D106C). Format: binding.
Assay [2] has as its target T1, PhoP. Format: binding. The source holds these as a separate data set.

Consider `CCCCCCCCCC(CC)c1ccc(S(=O)(=O)O)cc1` (centres unmarked) [NCGC00244580], for which the IC50 against PhoP [1] came out at 35.8 µM. In other words, the double-digit micromolar range.
NCGC00161636 had an IC50 on PhoP [2] of 15.5 µM.
